Assays:
[1] = Retention time of the compound by HPLC-MS analysis; format: physicochemical
[2] = biological target: T1, Cytochrome P450 2B6 (Homo sapiens, UniProt P20813); assay: Activity of human CYP2B6 assessed as observed rate constant for enzyme-mediated compound formation treated with 1 uM ticlopidine by HPLC-MS analysis in presence of NADPH; format: ADME
T1 sequence (P20813 whole entry): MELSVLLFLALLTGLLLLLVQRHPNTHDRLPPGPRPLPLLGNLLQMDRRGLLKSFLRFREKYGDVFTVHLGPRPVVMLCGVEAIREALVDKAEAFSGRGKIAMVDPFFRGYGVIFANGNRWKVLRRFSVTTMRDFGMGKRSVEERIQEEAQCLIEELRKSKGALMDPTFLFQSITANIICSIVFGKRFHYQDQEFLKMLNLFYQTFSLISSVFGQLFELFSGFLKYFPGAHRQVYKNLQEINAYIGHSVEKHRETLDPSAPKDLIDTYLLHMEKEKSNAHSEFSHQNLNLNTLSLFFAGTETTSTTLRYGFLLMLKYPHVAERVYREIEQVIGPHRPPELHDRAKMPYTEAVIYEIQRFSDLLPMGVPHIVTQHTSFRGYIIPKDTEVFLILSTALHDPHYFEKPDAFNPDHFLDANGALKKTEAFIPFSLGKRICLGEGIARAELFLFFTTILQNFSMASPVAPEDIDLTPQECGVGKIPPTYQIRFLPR

[3] = biological target: T2, Cytochrome P450 2B4 (Oryctolagus cuniculus, UniProt P00178); assay: Activity of rabbit CYP2B4 assessed as observed rate constant for enzyme-mediated compound formation treated with 1 uM ticlopidine by HPLC-MS analysis in presence of NADPH; format: ADME
T2 sequence (P00178 whole entry): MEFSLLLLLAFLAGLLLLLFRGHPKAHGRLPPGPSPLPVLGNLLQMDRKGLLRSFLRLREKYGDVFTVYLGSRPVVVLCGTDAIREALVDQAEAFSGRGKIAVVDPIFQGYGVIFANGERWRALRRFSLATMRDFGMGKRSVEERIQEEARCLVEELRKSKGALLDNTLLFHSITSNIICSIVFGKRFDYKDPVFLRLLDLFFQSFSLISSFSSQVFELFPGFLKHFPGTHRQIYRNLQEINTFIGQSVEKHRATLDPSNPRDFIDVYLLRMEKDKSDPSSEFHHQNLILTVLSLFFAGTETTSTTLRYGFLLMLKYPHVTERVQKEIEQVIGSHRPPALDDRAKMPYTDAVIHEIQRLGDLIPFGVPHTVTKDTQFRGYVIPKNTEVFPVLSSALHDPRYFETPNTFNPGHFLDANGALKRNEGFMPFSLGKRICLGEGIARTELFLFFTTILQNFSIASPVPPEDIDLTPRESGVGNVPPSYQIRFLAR

[4] = system: Liver microsome; assay: Drug level in human liver microsomes assessed as compound formation treated with 10 uM ticlopidine for 60 mins by HPLC-MS analysis in presence of NADPH; format: ADME; conditions: 1 h
[5] = biological target: T1, Cytochrome P450 2B6; assay: Activity of human CYP2B6 assessed as enzyme-mediated compound formation treated with 10 uM ticlopidine for 60 mins by HPLC-MS analysis in presence of NADPH; format: ADME; conditions: 1 h
[6] = biological target: T2, Cytochrome P450 2B4; assay: Activity of rabbit CYP2B4 assessed as enzyme-mediated compound formation treated with 10 uM ticlopidine for 60 mins by HPLC-MS analysis in presence of NADPH; format: ADME; conditions: 1 h
[7] = biological target: T1, Cytochrome P450 2B6; assay: Activity of recombinant full-length CYP2B6 (unknown origin) expressed in baculovirus-infected insect cells assessed as enzyme-mediated compound formation treated with 10 uM ticlopidine for 60 mins by HPLC-MS analysis in presence of NADPH; format: ADME; conditions: 1 h
[8] = biological target: T3, CYP2B4 (Oryctolagus cuniculus, UniProt P00178); assay: Inhibition of rabbit CYP2B4 assessed as inactivation rate constant at 100 uM for 2 mins by HPLC-MS analysis in presence of NADPH; format: ADME
T3 sequence (P00178 whole entry): T2 sequence (P00178 whole entry)

[9] = biological target: T4, CYP2B6 (Homo sapiens, UniProt P20813); assay: Inhibition of human CYP2B6 assessed as inactivation rate constant at 100 uM for 2 mins by HPLC-MS analysis in presence of NADPH; format: ADME
T4 sequence (P20813 whole entry): T1 sequence (P20813 whole entry)

Compound	Retention_time [1] [min]	kobs [2] [min⁻¹]	kobs [3] [min⁻¹]	Compound recovery [4]	Compound recovery [5]	Compound recovery [6]	Compound recovery [7]	kinact at 2 min, 100 µM [8] [s⁻¹]	kinact at 2 min, 100 µM [9] [s⁻¹]
OC1CN(Cc2ccccc2Cl)Cc2ccsc21 (stereo not given)	4.56	0.48	0.49	metabolite_detected	metabolite_detected	metabolite_detected	metabolite_detected		
O=C1C=C2CN(Cc3ccccc3Cl)CCC2S1 (stereo not given)	4.9	0.5	0.48	metabolite_detected	metabolite_detected	metabolite_detected	metabolite_detected		
Clc1ccccc1C[N+]1=Cc2ccsc2CC1				metabolite_detected	metabolite_detected	metabolite_detected	metabolite_detected		
Clc1ccccc1C[n+]1ccc2sccc2c1			0.56	metabolite_detected	metabolite_detected	metabolite_detected	metabolite_detected		
[O-][N+]1(Cc2ccccc2Cl)CCc2sccc2C1 (stereo not given)	8	0.61	0.66	metabolite_detected	metabolite_detected	metabolite_detected	metabolite_detected		
CCOc1ccc2c(C(F)(F)F)cc(=O)oc2c1								0.000333	0.00167
CC(NC(C)(C)C)C(=O)c1cccc(Cl)c1 (stereo not given) [BUPROPION]	9.7							0.00133	0.00533
